The values below come from patent publication US20210177861A1, “NRF2 ACTIVATOR FOR THE TREATMENT OF ACUTE LUNG INJURY, ACUTE RESPIRATORY DISTRESS SYNDROME AND MULTIPLE ORGAN DYSFUNCTION SYNDROME” (GLAXOSMITHKLINE INTELLECTUAL PROPERTY DEVELOPMENT LIMITED, priority 2017, published 2021).

Entries after “also recorded” stand apart in the source; their conditions may differ.

The test system of assay [1] is animals with hyperoxia-induced ALI. The settings on record: animals treated with Bardoxolone; cited from earlier work.
Assay [2] concerns paraquat-treated rats. Description: PQ-induced acute lung injury model (tracheal instillation of paraquat). The format is in vivo, rat. From the text:
The model of PQ-induced increase in lung edema formation described in Rumsey, W., et al., (Mutagenesis. 2017, 32(3):343-353) is incorporated by reference in its entirety. In support of this invention, ALI was stimulated by the tracheal instillation of PQ which damages mtDNA in lung cells and provokes a loss of epithelial/endothelial integrity and edema formation.
Age-matched male Lewis rats (250-400 g, Charles River Breeding Laboratories, Wilmington, Mass.) were allowed free access to food and water. Animals were administered NRF2 compound via tracheal instillation 24 hours prior to oxidative insult.
For studies using PQ (or N,N′-dimethyl-4,4′-[…], Sigma Aldrich, St Louis, Mo.) as the toxin, aliquots were prepared in sterile phosphate-buffered saline (PBS) and instilled directly to the trachea of the rat while under isoflurane anesthesia. Rats were anesthetized in a small acrylic induction box with 2-5% isoflurane gas. When surgical anesthesia was obtained (assessed by loss of the righting reflex followed by use of the pedal withdrawal reflex), the rat was removed from the box and placed supine on a head up, tilted platform. The trachea was illuminated and either PQ or vehicle (300 μl, doses identified in figure legends) was directly instilled into the trachea, anterior to the primary bifurcation at the carina, using a blunt-tipped needle. The animal was returned to a recovery cage, where the righting reflex was regained in 2-3 minutes.
To monitor changes in airway mechanics, rats were placed into individual plethysmograph chambers (BUXCO Electronics, Troy, N.Y.). Fresh air was supplied by bias flow pumps to the chambers. Baseline respiratory (Penh) values were collected prior to administration of PQ and on succeeding days after administration of the agent. An average Penh was calculated for a period of 5 min where enhanced pause (Penh=[(expiratory time/relaxation time)−1]×(peak expiratory flow/peak inspiratory flow)) and relaxation time is the amount of time required for 70% of the tidal volume to be expired.
For measurements of edema formation in the lungs, the tissue was excised and weighed gravimetrically. A portion was dried overnight in an oven at […]. and weighed for dry weight.
In some studies, bronchoalveolar lavage was performed to identify the immune cells infiltrating the lung in response to the toxicant. After the animals were euthanized (Fatal Plus, 100 mg/kg i.p.), the trachea was surgically exposed and a blunt-tipped needle was inserted into the trachea for administration of lavage fluid (5×5 ml Dulbecco's phosphate buffered saline, PBS). The lavage fluid was collected, placed on ice and centrifuged (3000 rpm×10 min, Beckman-Coulter, Danvers, Mass.). Supernatant was aspirated and frozen whereas the pellet was resuspended in 5 ml of PBS. An aliquot (100 μl) was centrifuged (300 rpm×5 min, cytospin, Thermo-Shandon, Waltham, Mass.) and a separate sample prepared as 1:5 dilution for total cell counts using a hemocytometer. Aliquots of cells were placed on slides and stained (Kwik-Diff-Quick, Thermo-Shandon, Waltham, Mass.) according to manufacturer's instructions. At least 200 cells were counted and percentages of different cell types were calculated (macrophages and neutrophils).
For extraction of either RNA or DNA, the tissue was added to lysis buffer (Kingfisher DNA or RNA extraction kit, Thermo Fisher Scientific, Waltham, Mass.) and the samples were processed according to the manufacturer's instructions. The nucleotide quantities were determined with respective Qubit kits (Thermo Fisher, Waltham, Mass.). For measurement of mtDNA copy number by quantitative real time PCR, nuclear and mitochondrial primer sets (1 pmol/μl), and 2× SYBR green master mix (Life Technologies, Waltham, Mass.) were added to 50 ng of DNA combined with water (total 20 ul). […]

Assay [3] has as its system rats exposed to ozone. Description: Ozone-induced lung injury (1 ppm of ozone for 3 hours). The class given is in vivo, rat. The settings on record: 3 μmol/kg i.t. 24 hours prior to 1 ppm ozone for 3 hours, sacrificed four hrs later. As for the experimental part:
FIG. 4 depicts the effect of NRF2 activator Compound I on ozone-induced changes in lung wet to dry weight ratio (FIG. 4A) and relative mtDNA copy number (FIG. 4B). Rats were administered the NRF2 activator (3 μmol/kg i.t.) 24 hours prior to ozone exposure (1 ppm of ozone for 3 hours). Four hrs later the animals were sacrificed. All data represent means±S.E.M. (*, **, *** refer to p<0.05, 0.01 and 0.001, respectively).
Age-matched male Lewis rats (250-400 g, Charles River Breeding Laboratories, Wilmington, Mass.) were allowed free access to food and water. Animals were administered NRF2 compound via tracheal instillation 24 hours prior to oxidative insult. […]
In another study, rats were exposed to ozone (2.0 ppm) for a 3 hr period twice a week with a resting period of 2 days between treatments. […] Ozone was generated (Oxycycler ozonator (model# A84ZV, Biospherix Inc., Lacona, N.Y.) by passing room air through the ozonator at a rate of 50-75 cm^3/min, mixing it with filtered room air at a rate of 10 L/min, and flowing this sample into a Plexiglass chamber containing the rodents. Ozone, carbon dioxide and humidity levels in the chamber were constantly monitored (Ozone Monitor Model 450, Teledyne Advanced Pollution Instrumentation, Inc., Thousand Oaks, Calif.). The animals were euthanized as described above 24 hrs after the last exposure to ozone. See FIG. 4-5. […]

Assay [4] deals with rats exposed to ozone. In words: Severe ozone exposure (faulty ventilation, ozone above intended 1 ppm): death and glutathione. The class given is in vivo, rat. The text has this:
FIG. 5 depicts the protection offered by NRF2 activator Compound I against ozone-induced death (FIG. 5A) and loss of glutathione (FIG. 5B). Due to an unknown faulty ventilation system, ozone in the chamber built up to levels (unable to quantify) above those normally used in other studies. The intended exposure was 1 ppm. For those animals that survived, tissue values of NRF2-related parameters were examined 24 hrs. after ozone exposure. In addition, animals exposed to ozone within the control group were combined. All data represent means±S.E.M. (*, **, *** refer to p<0.05, 0.01 and 0.001, respectively). […]
In another study, rats were exposed to ozone (2.0 ppm) for a 3 hr period twice a week with a resting period of 2 days between treatments. […] Ozone was generated (Oxycycler ozonator (model# A84ZV, Biospherix Inc., Lacona, N.Y.) by passing room air through the ozonator at a rate of 50-75 cm^3/min, mixing it with filtered room air at a rate of 10 L/min, and flowing this sample into a Plexiglass chamber containing the rodents. Ozone, carbon dioxide and humidity levels in the chamber were constantly monitored (Ozone Monitor Model 450, Teledyne Advanced Pollution Instrumentation, Inc., Thousand Oaks, Calif.). The animals were euthanized as described above 24 hrs after the last exposure to ozone. See FIG. 4-5.

Assay [5] deals with mice exposed to ozone. In words: Repeated ozone exposure, alveolar barrier breakdown (serum surfactant protein-D, mtDNA). The class given is in vivo, mouse. The settings on record: FIG. 6. As for the experimental part:
Mice were exposed to ozone (1.5 ppm) for 3 hrs, twice per week for 3 weeks. Compound 1 was administered for 5 days/week, with the first dose administered 1 hour prior to first ozone administration. Blood/serum was collected 2 hrs after the final ozone exposure. Surfactant protein-D was measured using a commercially available ELISA kit. All data represent mean+/−S.E.M.
For determination of mtDNA damage (21), 15 ng of DNA in long chain PCR buffer was coupled with appropriate long and short primers for murine tissues. The reaction mixture was essentially the same for both long and short runs with the exception that the [Mg++] was 1.2 and 1.1 mM, respectively. For mouse tissues, the following thermocycler conditions were utilized: 94° C.×2 min followed by 19 cycles at 94° C.×15 sec, 64° C.×30 sec, 68° C.×8 min and finished at 72° C.×7 min; 94° C.×2 min, 94° C.×15 sec, 60° C.×30 sec, 72° C.×45 sec, and finished at 72° C.×7 min for the long and short PCR, respectively. The long and short primer sequences for mouse;
For both species, the long and short PCR products were then diluted 1:10 with Tris EDTA buffer containing 5 μl/ml of Pico Green (Molecular Probes, Invitrogen, Carlsbad Calif.) and fluorescence was monitored (485 nm excitation/528 nm emission, Envision Perkin Elmer, Waltham, Mass.). The replicates for each sample were averaged, the long primer was subtracted from the short primer, and transformed into percent of control using normalization functions (GraphPad Prism v6.0, La Jolla, Calif.). The data were calculated to reflect an increase in damage by subtracting the long primer from the short primer, rather than the opposite which would show the reduction of signal.
Surfactant protein-D (SP-D) was measured using a commercially available kit (Mouse Quantikine SP-D, R&D Systems #MSFPDO, Minneapolis, Minn.). Absorbances were monitored at 450 and 540 nm using a microplate spectrophotometer (Powerwave, BioTek, Winooski, Vt.) with Gen5 software (version 2.03.Ink). […] Degradation or breakdown of alveolar barrier and leakage of water into the alveolar is measured by wet:dry ratio. […]

Assay [6] has as its system murine model of PQ-induced ALI. As to conditions: treatment with DNasel; cited from earlier work.
Setting [7] is: relative to the PQ treated vehicle control animals, FIG. 3.

With `CC1(C)CC[C@]2(C(=O)O)CC[C@]3(C)[C@H](C(=O)C=C4[C@@]5(C)C=C(C#N)C(=O)C(C)(C)[C@@H]5CC[C@]43C)[C@@H]2C1` [Bardoxolone], the “protection from hyperoxia-induced ALI” value in assay [1] is on record as “protected them from hyperoxia-induced ALI”.
`CC[C@@H]1CN(Cc2cc([C@H](CC(=O)O)c3ccc4c(nnn4CC)c3C)ccc2C)S(=O)(=O)c2cccnc2O1` [Compound I, (S)-3-(3-(((R)-4-ethyl-1,1-dioxido-3,4-dihydro-2H-pyrido[2,3-b][1,4,5]oxathiazepin-2-yl)methyl)-4-methylphenyl)-3-(1-ethyl-4-methyl-1H-benzo[d][1,2,3]triazol-5-yl)propanoic acid]: the “inflammatory immune cells in bronchoalveolar lavage fluid (macrophages and neutrophils)” value in assay [2] (paraquat-treated rats, FIG. 2) was “decreased numbers of immune cells in the bronchoalveolar lavage fluid; also recorded: reduction in inflammatory immune cells”. Further, the “NQO1 activity (NRF2-mediated gene expression)” value in assay [2] (rat lung, PQ-treated, FIG. 3B) is “stimulated an upregulation of NQO1 activity”. Besides, the “DNA oxidation (8-OHdG levels)” value in assay [2] (rat lung, PQ-treated, FIG. 3C) is recorded as “attenuating the impact of PQ on DNA oxidation”. The “PQ-mediated mtDNA damage (relative mtDNA copy number)” value in assay [2] (rat lung, FIG. 3A) is “blockade of mtDNA damage; also recorded: prevented”. In addition, the “lung function, expressed as Penh” value in assay [2] (rats, Compound I suspension i.t. 24 hrs prior to PQ (0.05 mg/kg i.t.), FIG. 1A) is given as “improves lung function”. Also, the “lung edema formation, lung wet:dry weight ratio” value in assay [2] (rats, Compound I suspension i.t. 24 hrs prior to PQ (0.05 mg/kg i.t.), FIG. 1B) is recorded as “maintenance of the lung wet:dry ratio; also recorded: protecting against the PQ-induced increase in lung edema formation”. Further, in assay [2] (setting [7]), the TXNRD1 gene expression entry was “exception” and the “expression of other NRF2 genes (GCLC, HO-1, etc.)” value is recorded as “up-regulated”. Further, the “ozone-induced edema formation (lung wet to dry weight ratio)” value in assay [3] (FIG. 4A) was “protected”. The “ozone-induced mtDNA damage (relative mtDNA copy number)” value in assay [3] (FIG. 4B) is “protected”. Further, the “ozone-induced death (survival)” value in assay [4] (severe ozone exposure, level unable to quantify (intended 1 ppm), FIG. 5A) is listed as “protection; also recorded: survive the lethal insult”. Moreover, the “ozone-induced loss of glutathione” value in assay [4] (surviving animals, tissue 24 hrs after ozone exposure, FIG. 5B) is reported as “protection”. The “degradation or breakdown of the alveolar barrier” value in assay [5] (mice, ozone 1.5 ppm 3 hrs twice per week for 3 weeks) is “prevented; also recorded: protective effect”. Also, the “surfactant D (serum surfactant protein-D), biomarker of epithelial/alveolar barrier integrity” value in assay [5] (mice, ozone 1.5 ppm 3 hrs twice per week for 3 weeks, dosing 5 days/week, serum 2 hrs after final ozone exposure) is “dose dependently prevented”. In assay [5] (repeated ozone exposures), the “changes in mtDNA” value is recorded as “dose dependently prevented”.

B1: DNasel: DNasel, presumably targeting expulsed mtDNA (protein, UniProt P24855 23-282, looked up)
Deoxyribonuclease-1: LKIAAFNIQTFGETKMSNATLVSYIVQILSRYDIALVQEVRDSHLTAVGKLLDNLNQDAPDTYHYVVSEPLGRNSYKERYLFVYRPDQVSAVDSYYYDDGCEPCGNDTFNREPAIVRFFSRFTEVREFAIVPLHAAPGDAVAEIDALYDVYLDVQEKWGLEDVMLMGDFNAGCSYVRPSQWSSIRLWTSPTFQWLIPDSADTTATPTHCAYDRIVVAGMLLRGAVVPDSALPFNFQAAYGLSDQLAQAISDHYPVEVMLK
Consider B1, for which the “PQ-induced lung injury and survival” value in assay [6] is “Protection from PQ-induced lung injury and survival”.
